Tests used:
[1] = tested on: cotton aphid (Aphis gossypii); test: Aphis gossypii test (APHIGO) with ammonium salts and/or penetrants; format: in vivo; conditions: for % efficacy after 6 days +AMS: +AMS (ammonium sulphate) 1000 ppm; for % efficacy after 6 days +RME: +RME (rapeseed oil methyl ester) 1000 ppm; for % efficacy after 6 days +RME + AMS: each 1000 ppm
Method: Aphis gossypii Test (APHIGO)
Solvents: 7 parts by weight of dimethylformamide
(§1) Emulsifier: 2 parts by weight of alkylaryl polyglycol ether
(§2) To produce a suitable preparation of active compound, 1 part by weight of active compound is mixed with the stated amounts of solvents and emulsifier, and the concentrate is diluted with emulsifier-containing water to the desired concentration. For the required application of ammonium salts, penetrants or ammonium salts and penetrants, these are in each case added with a pipette after dilution of the respective finished solution of the preparation at a concentration of 1000 ppm.
Cotton leaves (Gossypium hirsutum) which are heavily infested by the cotton aphid (Aphis gossypii) are sprayed with an active compound preparation of the desired concentration.
After the desired period of time, the kill in % is determined. 100% means that all aphids have been killed; 0% means that none of the aphids have been killed.

[2] = tested on: green peach aphid (Myzus persicaei); test: Myzus persicae test (MYZUPE) with ammonium salts and/or penetrants; format: in vivo; conditions: for % efficacy after 6 days +AMS: +AMS (ammonium sulphate) 1000 ppm; for % efficacy after 6 days +RME: +RME (rapeseed oil methyl ester) 1000 ppm; for % efficacy after 6 days +RME + AMS: each 1000 ppm
Method: Myzus persicae Test (MYZUPE)
Solvent: 7 parts by weight of dimethylformamide
as §1, §2
Paprika plants (Capsicum annuum) which are heavily infested by the green peach aphid (Myzus persicaei) are treated by being sprayed with the preparation of active compound of the desired concentration.
After the desired period of time, the kill in % is determined. 100% means that all animals have been killed; 0% means that none of the animals have been killed.

[3] = Determination of the logP values by HPLC on a reverse-phase column (C 18); format: physicochemical; conditions: for chromatographic logP: reverse-phase HPLC column (C 18), read-out: log P; for chromatographic logP / log P: HPLC, reverse-phase C 18, acidic range (pH 3.4), 55° C.
Method: Determination of the logP Values
The logP values given in the table were determined in accordance with EEC Directive 79/831 Annex V.A8 by HPLC (high performance liquid chromatography) on a reverse-phase column (C 18). Temperature: 55° C.
Mobile phases for the determination in the acidic range (pH 3.4):
Mobile phase A: acetonitrile+1 ml of formic acid/liter. Mobile phase B: water+0.9 ml of formic acid/liter.
Gradient: from 10% mobile phase A/90% mobile phase B to 95% mobile phase A/5% mobile phase B over 4.25 min.
Calibration was carried out using unbranched alkan-2-ones (having 3 to 16 carbon atoms) with known logP values (determination of the logP values by the retention times using linear interpolation between two successive alkanones). The lambda max values were determined in the maxima of the chromatographic signals using the UV spectra from 200 nm to 400 nm.

[4] = HPLC on a reverse-phase column (C 18), separated α/β isomers

Structure (SMILES): Cc1cc(C)c(C2=C(O)C3(CCC4(CCCO4)CC3)NC2=O)c(C)c1 (mixture of isomers) [Example I-1-a-4]
- % efficacy after 6 days +AMS ([1]; 0.8 ppm): 0%
- % efficacy after 6 days +RME ([1]; 0.8 ppm): 15%
- % efficacy after 6 days +RME + AMS ([1]; 0.8 ppm): 45%
- % efficacy after 6 days without additive ([1]; 0.8 ppm): 10%
- % efficacy after 6 days +AMS ([1]; 4 ppm): 75%
- % efficacy after 6 days +RME ([1]; 4 ppm): 75%
- % efficacy after 6 days +RME + AMS ([1]; 4 ppm): 80%
- % efficacy after 6 days without additive ([1]; 4 ppm): 60%
- % efficacy after 6 days +AMS ([2]; 0.8 ppm): 0%
- % efficacy after 6 days +RME ([2]; 0.8 ppm): 60%
- % efficacy after 6 days +RME + AMS ([2]; 0.8 ppm): 99%
- % efficacy after 6 days without additive ([2]; 0.8 ppm): 10%
- % efficacy after 6 days +AMS ([2]; 4 ppm): 80%
- % efficacy after 6 days +RME ([2]; 4 ppm): 90%
- % efficacy after 6 days +RME + AMS ([2]; 4 ppm): 98%
- % efficacy after 6 days without additive ([2]; 4 ppm): 75%

Structure (SMILES): Cc1cc(Cl)cc(C)c1C1=C(O)C2(CCC3(CCCO3)CC2)NC1=O (mixture of isomers) [Example I-1-a-6]
- % efficacy after 6 days +AMS ([1]; 20 ppm): 5%
- % efficacy after 6 days +RME ([1]; 20 ppm): 60%
- % efficacy after 6 days +RME + AMS ([1]; 20 ppm): 95%
- % efficacy after 6 days without additive ([1]; 20 ppm): 35%

Structure (SMILES): Cc1cc(Br)cc(C)c1C1=C(O)C2(CCC3(CCCO3)CC2)NC1=O (mixture of isomers) [Example I-1-a-8]
- % efficacy after 6 days +AMS ([2]; 0.8 ppm): 0%
- % efficacy after 6 days +RME ([2]; 0.8 ppm): 20%
- % efficacy after 6 days +RME + AMS ([2]; 0.8 ppm): 99%
- % efficacy after 6 days without additive ([2]; 0.8 ppm): 0%
- % efficacy after 6 days +AMS ([2]; 4 ppm): 98%
- % efficacy after 6 days +RME ([2]; 4 ppm): 99%
- % efficacy after 6 days +RME + AMS ([2]; 4 ppm): 100%
- % efficacy after 6 days without additive ([2]; 4 ppm): 45%

Structure (SMILES): Cc1ccc(-c2ccc(F)cc2)cc1C1=C(O)C2(CCC3(CCCO3)CC2)OC1=O (stereo not drawn) [Example I-2-a-22]
- log P* [3, 4]: 3.0

Structure (SMILES): Cc1ccc(-c2ccc(F)cc2)cc1C1=C(O)C2(CCC3(CCCO3)CC2)OC1=O (stereo not drawn) [Example I-2-a-23]
- log P* [3, 4]: 3.5

Structure (SMILES): Cc1ccc(-c2ccc(Cl)cc2)cc1C1=C(O)C2(CCC3(CCCO3)CC2)OC1=O (stereo not drawn) [Example I-2-a-24]
- log P* [3, 4]: 3.32

Structure (SMILES): Cc1ccc(-c2ccc(Cl)cc2)cc1C1=C(O)C2(CCC3(CCCO3)CC2)OC1=O (stereo not drawn) [Example I-2-a-25]
- log P* [3, 4]: 3.87

Structure (SMILES): Cc1cc(C)c(-c2ccc(Cl)cc2)cc1C1=C(O)C2(CCC3(CCCO3)CC2)OC1=O (stereo not drawn) [Example I-2-a-26]
- log P* [3, 4]: 4.15

Structure (SMILES): Cc1cc(C)c(-c2ccc(Cl)cc2)cc1C1=C(O)C2(CCC3(CCCO3)CC2)OC1=O (stereo not drawn) [Example I-2-a-27]
- log P* [3, 4]: 3.60

Structure (SMILES): Cc1ccc(-c2ccc(F)cc2)c(C)c1C1=C(O)C2(CCC3(CCCO3)CC2)OC1=O (stereo not drawn) [Example I-2-a-46]
- log P* [3, 4]: 3.69

Structure (SMILES): Cc1ccc(-c2ccc(F)cc2)c(C)c1C1=C(O)C2(CCC3(CCCO3)CC2)OC1=O (stereo not drawn) [Example I-2-a-47]
- log P* [3, 4]: 3.20

Structure (SMILES): O=C1OC2(CCC3(CCCO3)CC2)C(O)=C1c1cc(-c2ccc(F)cc2)ccc1Cl (stereo not drawn) [Example I-2-a-50]
- log P* [3, 4]: 2.91

Structure (SMILES): O=C1OC2(CCC3(CCCO3)CC2)C(O)=C1c1cc(-c2ccc(F)cc2)ccc1Cl (stereo not drawn) [Example I-2-a-51]
- log P* [3, 4]: 3.42

Structure (SMILES): COc1cc(C)cc(C)c1C1=C(OC(=O)C(C)C)[C@]2(CC[C@@]3(CCCO3)CC2)OC1=O [Example I-2-b-1]
- chromatographic logP [3]: 4.12

Structure (SMILES): COc1cc(C)cc(C)c1C1=C(OC(=O)C(C)C)C2(CCC3(CCCO3)CC2)OC1=O (stereo not drawn) [Example I-2-b-2]
- log P* ([3]; compounds of formula (I-2-b)): 4.60

Structure (SMILES): Cc1cc(C)c(-c2ccc(Cl)cc2)cc1C1=C(OC(=O)C(C)C)C2(CCC3(CCCO3)CC2)OC1=O (stereo not drawn) [Example I-2-b-3]
- log P* ([3]; compounds of formula (I-2-b)): 5.64

Structure (SMILES): Cc1cc(C)c(-c2ccc(Cl)cc2)cc1C1=C(OC(=O)C(C)C)C2(CCC3(CCCO3)CC2)OC1=O (stereo not drawn) [Example I-2-b-4]
- log P* ([3]; compounds of formula (I-2-b)): 6.24

Structure (SMILES): Cc1ccc(C)c(C2=C(OC(=O)C(C)C)C3(CCC4(CCCO4)CC3)OC2=O)c1 (stereo not drawn) [Example I-2-b-5]
- log P* ([3]; compounds of formula (I-2-b)): 4.22

Structure (SMILES): Cc1ccc(C)c(C2=C(OC(=O)C(C)C)C3(CCC4(CCCO4)CC3)OC2=O)c1 (stereo not drawn) [Example I-2-b-6]
- log P* ([3]; compounds of formula (I-2-b)): 4.78

Structure (SMILES): Cc1cc(C)c(C2=C(OC(=O)C(C)C)C3(CCC4(CCCO4)CC3)OC2=O)c(C)c1 (stereo not drawn) [Example I-2-b-7]
- log P* ([3]; compounds of formula (I-2-b)): 4.52

Structure (SMILES): Cc1cc(C)c(C2=C(OC(=O)C(C)C)C3(CCC4(CCCO4)CC3)OC2=O)c(C)c1 (stereo not drawn) [Example I-2-b-8]
- log P* ([3]; compounds of formula (I-2-b)): 5.12

Structure (SMILES): Cc1ccc(-c2ccc(F)cc2)cc1C1=C(OC(=O)C(C)C)C2(CCC3(CCCO3)CC2)OC1=O (stereo not drawn) [Example I-2-b-9]
- log P* ([3]; compounds of formula (I-2-b)): 4.83

Structure (SMILES): Cc1ccc(-c2ccc(F)cc2)cc1C1=C(OC(=O)C(C)C)C2(CCC3(CCCO3)CC2)OC1=O (stereo not drawn) [Example I-2-b-10]
- log P* ([3]; compounds of formula (I-2-b)): 5.38

Structure (SMILES): CC(C)C(=O)OC1=C(c2cc(-c3ccc(Cl)cc3)ccc2Cl)C(=O)OC12CCC1(CCCO1)CC2 (stereo not drawn) [Example I-2-b-12]
- log P* ([3]; compounds of formula (I-2-b)): 5.26

Structure (SMILES): Cc1ccc(-c2ccc(Cl)cc2)cc1C1=C(OC(=O)C(C)C)C2(CCC3(CCCO3)CC2)OC1=O (stereo not drawn) [Example I-2-b-13]
- log P* ([3]; compounds of formula (I-2-b)): 5.29

Structure (SMILES): Cc1cc(C)c(C2=C(OC(=O)C(C)(C)C)C3(CCC4(CCCO4)CC3)OC2=O)c(C)c1 (stereo not drawn) [Example I-2-b-14]
- log P* ([3]; compounds of formula (I-2-b)): 4.96

Structure (SMILES): Cc1ccc(-c2ccc(Cl)cc2)c(C)c1C1=C(OC(=O)C(C)C)C2(CCC3(CCCO3)CC2)OC1=O (stereo not drawn) [Example I-2-b-15]
- log P* ([3]; compounds of formula (I-2-b)): 5.63

Structure (SMILES): Cc1ccc(-c2ccc(Cl)cc2)c(C)c1C1=C(OC(=O)C(C)(C)C)C2(CCC3(CCCO3)CC2)OC1=O (stereo not drawn) [Example I-2-b-16]
- log P* ([3]; compounds of formula (I-2-b)): 6.09

Structure (SMILES): Cc1cc(C)c(C2=C(OC(=O)C(C)(C)C)C3(CCC4(CCCO4)CC3)OC2=O)c(C)c1 (stereo not drawn) [Example I-2-b-17]
- log P* ([3]; compounds of formula (I-2-b)): 5.58

Structure (SMILES): COc1cccc(C)c1C1=C(OC(=O)C(C)C)C2(CCC3(CCCO3)CC2)OC1=O (stereo not drawn) [Example I-2-b-18]
- log P* ([3]; compounds of formula (I-2-b)): 3.75

Structure (SMILES): COc1cccc(C)c1C1=C(OC(=O)C(C)(C)C)C2(CCC3(CCCO3)CC2)OC1=O (stereo not drawn) [Example I-2-b-19]
- log P* ([3]; compounds of formula (I-2-b)): 4.16

Structure (SMILES): COc1cccc(C)c1C1=C(OC(=O)C(C)C)C2(CCC3(CCCO3)CC2)OC1=O (stereo not drawn) [Example I-2-b-20]
- log P* ([3]; compounds of formula (I-2-b)): 4.25

Structure (SMILES): COc1cc(C)cc(C)c1C1=C(OC(=O)C(C)(C)C)C2(CCC3(CCCO3)CC2)OC1=O (stereo not drawn) [Example I-2-b-21]
- log P* ([3]; compounds of formula (I-2-b)): 4.50

Structure (SMILES): CCc1cc(C)cc(CC)c1C1=C(OC(=O)C(C)C)C2(CCC3(CCCO3)CC2)OC1=O (stereo not drawn) [Example I-2-b-22]
- log P* ([3]; compounds of formula (I-2-b)): 5.17

Structure (SMILES): CCc1cc(C)cc(CC)c1C1=C(OC(=O)C(C)(C)C)C2(CCC3(CCCO3)CC2)OC1=O (stereo not drawn) [Example I-2-b-23]
- log P* ([3]; compounds of formula (I-2-b)): 5.62

Structure (SMILES): CCc1cc(C)cc(CC)c1C1=C(OC(=O)C(C)C)C2(CCC3(CCCO3)CC2)OC1=O (stereo not drawn) [Example I-2-b-24]
- log P* ([3]; compounds of formula (I-2-b)): 5.79

Structure (SMILES): CCc1cc(C)cc(CC)c1C1=C(OC(=O)C(C)(C)C)C2(CCC3(CCCO3)CC2)OC1=O (stereo not drawn) [Example I-2-b-25]
- log P* ([3]; compounds of formula (I-2-b)): 6.25

Structure (SMILES): CCOC(=O)OC1=C(c2c(C)cc(C)cc2C)C(=O)O[C@]12CC[C@]1(CCCO1)CC2 [Example I-2-c-1]
- chromatographic logP [3]: 4.09

Structure (SMILES): CCOC(=O)OC1=C(c2c(C)cc(C)cc2C)C(=O)OC12CCC1(CCCO1)CC2 (stereo not drawn) [Example I-2-c-2]
- log P [3]: 4.69

Structure (SMILES): CCOC(=O)OC1=C(c2c(CC)cc(C)cc2CC)C(=O)OC12CCC1(CCCO1)CC2 (stereo not drawn) [Example I-2-c-3]
- log P [3]: 4.68

Structure (SMILES): CCOC(=O)OC1=C(c2c(CC)cc(C)cc2CC)C(=O)OC12CCC1(CCCO1)CC2 (stereo not drawn) [Example I-2-c-4]
- log P [3]: 5.28
